“Also recorded” adds a separate entry of the source.
Experiments:
[1] = tested on: PHTS symptoms in K14-cre-Pten f/f mice; experiment: Early administration: prevention of PHTS symptom development in K14-cre-Pten f/f mice; type: in vivo; details: 25 mg/kg daily by oral gavage beginning at 3 weeks of age
Method: (§1) 4-(Trifluoromethyl)-5-(2,6-dimorpholinopyrimidin-4-yl)pyridin-2-amine powder was dissolved in 1 volume of NMP (1-methyl-2-pyrrolidone). After dissolution (if needed, in warm water), add 9 volumes of PEG300. The final ratio is: NMP 10%/PEG300 90%.
Pten f/f mice (Lesche, R., et al., Cre/loxP-mediated inactivation of the murine Pten tumor suppressor gene. Genesis, 2002. 32(2): 148-9) were crossed with K14-cre mice (Jonkers, J., et al., Synergistic tumor suppressor activity of BRCA2 and p53 in a conditional mouse model for breast cancer. Nat Genet, 2001. 29(4): 418-25) to generate K14-Cre Pten f/f mice in which the floxed Pten allele is deleted specifically in the keratinocytes by the K14-driven Cre recombinase. […]
K14-cre-Pten f/f mice were treated daily with 25 mg/kg 4-(trifluoromethyl)-5-(2,6-dimorpholinopyrimidin-4-yl)pyridin-2-amine by oral gavage beginning at 3 weeks of age and the development of PHTS symptoms monitored. […]

[2] = tested on: PHTS symptoms in K14-cre-Pten f/f mice; experiment: Administration to K14-cre-Pten f/f mice with fully developed PHTS: relief of symptoms; type: in vivo
Method: as §1
Pten f/f mice (Lesche, R., et al., Cre/loxP-mediated inactivation of the murine Pten tumor suppressor gene. Genesis, 2002. 32(2): 148-9) were crossed with K14-cre mice (Jonkers, J., et al., Synergistic tumor suppressor activity of BRCA2 and p53 in a conditional mouse model for breast cancer. Nat Genet, 2001. 29(4): 418-25) to generate K14-Cre Pten f/f mice in which the floxed Pten allele is deleted specifically in the keratinocytes by the K14-driven Cre recombinase. These mice were further crossed with p110a f/f (Zhao, J. J., et al., The p110 alpha isoform of PI3K is essential for proper growth factor signaling and oncogenic transformation. Proc Natl Acad Sci USA, 2006. 103(44): 16296-300) and p110b f/f mice (Jia, S., et al., Essential roles of PI(3)K-p110beta in cell growth, metabolism and tumorigenesis. Nature, 2008) to generate K14-cre Pten f/f, K14-cre Pten f/f; p110a f/f, K14-cre Pten f/f; p110b f/f, and K14-cre-Pten f/f; p110a f/f; p110b f/f mice. Keratinocyte-specific deletion of Pten results in multiple dermal lesions in the K14-cre Ptenf/f mice that resemble multiple skin hamartomas of PHTS. […]

## Nc1cc(C(F)(F)F)c(-c2cc(N3CCOCC3)nc(N3CCOCC3)n2)cn1 [COMPOUND A, 4-(trifluoromethyl)-5-(2,6-dimorpholinopyrimidin-4-yl)pyridin-2-amine]
[1]; n=12
  development of PHTS symptoms (PHTS free survival): remained free of PHTS symptoms
[1]; n=12, listed as 4-(trifluoromethyl)-5-(2,6-dimorpholinopyrimidin-4-yl)pyridin-2-amine
  development of PHTS symptoms (PHTS free survival): remained free of PHTS symptoms; also recorded: entirely blocked appearance of PHTS
[2]; K14-cre-Pten f/f mice with fully developed PHTS (12-14 weeks of age), 45 mg/kg daily by oral gavage for 4 weeks, 45 mg/kg
  relief of PHTS symptoms: dramatically relieved the PHTS symptoms; also recorded: completely reversed the phenotype of PHST
[2]; K14-cre-Pten f/f mice with fully developed PHTS, 45 mg/kg daily by oral gavage, end of 4 weeks
  PHTS symptoms at the end of the 4-week treatment: substantially or completely reduced
